From the NIST ThermoML archive (doi:10.1016/j.fluid.2013.07.015)
Numbers after ± are expanded uncertainties.

Experiments:
[1] = refractive index (Na D-line) (dimensionless); settings: 298.15 K; 101.33 kPa; Liquid; Standard Abbe refractometry
[2] = Liquid; for mass density: 293.15 K, 101.33 kPa, Vibrating tube method; for Normal boiling temperature: Closed cell (Static) method

Compound: O=CO [formic acid]
- refractive index [1]: 1.3721 ± 0.00052
- mass density [2]: 1218.5 ± 1.4 kg/m3
- Normal boiling temperature [2]: 101.1 ± 1.1 °C

Compound: CCCCCCC(=O)OCC [ethyl heptanoate]
- refractive index [1]: 1.41123 ± 0.00052
- mass density [2]: 881.3 ± 0.74 kg/m3
- Normal boiling temperature [2]: 187.2 ± 1.1 °C

Compound: O [water]
- refractive index [1]: 1.33244 ± 0.00033
- mass density [2]: 999.9 ± 0.24 kg/m3
- Normal boiling temperature [2]: 100.1 ± 1 °C

Compound: CC(=O)O [acetic acid]
- refractive index [1]: 1.37104 ± 0.00052
- mass density [2]: 1044.3 ± 0.96 kg/m3
- Normal boiling temperature [2]: 117.1 ± 1.1 °C
